Results: US8507431B2, “Methods for accelerating wound healing by administration of a preadipocyte modulator or an adipocyte modulator” (HealOr Ltd., priority 2003, dated 2013)
Entries after “also recorded” stand apart in the source; their conditions may differ.

Tests used:
[1] = system: Full thickness wounds on the back of C57BL mice; assay: Wound healing assay, full thickness incision wounds in mice; format: in vivo; conditions: for epidermal migration vs PBS control (K14 staining) / wound contraction vs PBS control / dermal contraction (both dermal wound sides in a single field, H&E): topical daily for 6 days; for epidermal migration vs PBS control (K14 staining) / wound contraction vs PBS control / dermal contraction (both dermal wound sides in a single field, H&E) / wound area compared with the buffer control (morphological analysis): GW9662 2 μM, adipsin 1 μM; for wound contraction vs PBS control / wound area compared with the buffer control (morphological analysis): troglitazone 100 μM; for dermal contraction (both dermal wound sides in a single field, H&E): control negative; for wound area compared with the buffer control (morphological analysis): topical daily for six days, insulin 10 nM, troglitazone 100 μM + insulin 10 nM
Description: […] […] Wound biopsies were sampled, processed and analyzed morphologically and/or histochemically and/or immunohistochemically for various wound healing parameters, i.e., wound contraction, adipocytes migration and differentiation, epidermal migration, and epidermal closure.
The wound area was measured and compared to untreated control wounds; and wound contraction was calculated as the percent reduction of the wound area.
Wound biopsies were fixed in 4% paraformaldehyde then dehydrated in increasing concentrations of ethanol (50-100%). The dehydrated preparations were immersed first in xylene, then paraffin and xylene 1:1 solution, then in pure melted paraffin (60° C.). The paraffin blocks were then sectioned by a microtome and the sections were mounted on Super Frost^+™ slides.
Paraffin embedded wound-section slides were incubated at 60° C. for 60 minutes and were de-parafinated by washing the slides twice with toluene (100%) for 10 minutes, then rehydrated in decreasing concentration of ethanol (100-50%) for 5 minutes each. The slides were stained with hematoxylin (ready to use solution) for 10 minutes, rinsed with water, stained with eosin (0.5% in DDW) for 5 minutes, and then washed with 70% ethanol by 2 quick immersions. Thereafter, the slides were dehydrated by washing once with 95% ethanol for 2 minutes, twice with 100% ethanol for 5 minutes, and twice with xylene (100%) for 10 minutes, then mounted with entellan (MERCK Darmstadt Germany).
Paraffin embedded wound-section slides were de-parafinated as described for H&E staining above and incubated in blocking solution (5% BSA and 0.5% Tween 20™ in PBS) for 1 hour. The slides were then incubated with either anti-keratin 1 (1:500) or anti-keratin 14 (1:1000) antibody in blocking solution (5% BSA and 0.5% Tween 20™ in PBS) at 4° C. overnight. Thereafter, the slides were washed five times with washing buffer (5% Tween 20™ in PBS for K14 and 0.5% Tween 20™ in PBS for K1) followed by incubation with biotinilated goat anti-rabbit antibody (ZYMED Laboratories Inc.) suspended (1:200) in blocking solution (5% BSA and 0.5% Tween 20™ in PBS) for 1 hour at room temperature. The slides were then washed three times with washing buffer (5% Tween 20™ in PBS) followed by incubation with an enzyme streptavidin conjugate in blocking solution (1:300) for 1 hour at room temperature. Thereafter, the slides were washed twice with washing buffer (5% Tween 20™ in PBS) for 5 minutes, once with PBS for 5 minutes and once with TRIS buffer (0.05 M in PBS) for 5 minutes, followed by incubation in DAB reagent for color development. The reaction was terminated by immersing the slides in double distilled water followed by counterstaining with eosin (ICN, 0.5% in DDW). The slides were then washed with 70% ethanol by 2 quick immersions; dehydrated by washing once again with 95% ethanol for 2 minutes, twice with 100% ethanol for 5 minutes, and twice with xylene (100%) for 10 minutes; and mounted with entellan (MERCK Darmstadt Germany).
The effect of inhibiting or enhancing the activity of PPARγ using PPARγ antogonist and agonist, respectively, on wound healing was also evaluated in vivo. […]
The effect of adipsin (complementing Factor D, which is secreted from adipocytes) on wound healing was evaluated in vivo. […] The mice were sacrificed 6 days after wounding and the wounds were then analyzed. […] In addition, adipsin increased epidermal closure from about 15% to about 30%, and increased keratinocytes migration from about 30% to about 65%, as compared with the buffer control (FIG. 6).
Full thickness 20 mm incision wounds were performed on 8-10 week old C57BL mice, 6 mice per group. The wounds were treated daily for 7 days with PBS (control), adiponectin (1 μg/ml) or visfatin (0.01 μg/ml). Skin biopsies were paraffin embedded and slide sections representing the widest area of the wound were prepared. Sections were then subjected to histochemical staining such as H&E and Masson Trichrome (collagen). […]

[2] = system: primary keratinocytes; assay: Keratinocytes migration (wound scratch) assay in vitro; format: cell-based, murine; conditions: for keratinocyte migration in scratch assay vs control and insulin: treated daily, 24 and 48 hrs
Description: Primary keratinocytes were isolated from newborn skin as described in reference 18. Keratinocytes were cultured in Eagle's Minimal Essential Medium (EMEM) containing 8% Chelex (Chelex-100, BioRad) treated fetal bovine serum. To maintain a proliferative basal cell phenotype, the final Ca^2+ concentration was adjusted to 0.05 mM. Experiments were performed five to seven days after plating.
Primary mouse keratinocytes were untreated or treated with, PPARγ antagonist GW9662 (μM) or PPARγ agonist troglitazone (μM). Wound Scratch Assay was performed 24 hours following treatment, and representative fields were photographed immediately after the wounding (Day 0) and 48 hours later (Day 2). The average of wound closure represented as percentage in comparison to the initial width of the wound scratch (% of wound closure).
The effect of inhibiting or enhancing the activity of peroxisome proliferators-activated receptor gamma (PPARγ) on keratinocytes migration was evaluated utilizing the in vitro migration assay. Thus, primary keratinocytes were isolated and plated on 5 ml non-coated dishes until confluence in low Ca^2+ medium, and an artificial crossover scratch was formed in each dish with a 200 μm tip. Cells were either non-treated (control) or treated daily with PPARγ modulators.
In order to test the effect of different adipokines on keratinocyte migration to close the wound gap, an in vitro scratch assay was used. Thus, primary keratinocytes were isolated and plated on 5 ml non-coated dishes until confluence in low Ca^2+ medium, and an artificial crossover scratch was formed in each dish with a 200 μm tip. Cells were either non-treated (control) or treated daily with insulin (0.1 unit/ml), hIL-4 (2 ng/ml), hIL-6 (0.2 ng/ml), leptin (4 μg/ml) or apelin (0.02 μg/ml or 0.2 μg/ml).
(§1) Primary keratinocytes/fibroblasts were isolated and plated on 5 ml non-coated dishes until confluence in low Ca^2+ medium, and an artificial cross-over scratch was formed in each dish with a 200 μm tip. Then, cells were either non-treated or treated with visfatin (0.1 μg/ml or 0.0.1 μg/ml) or insulin (0.1 unit/ml) for up to 48 hrs.

[3] = system: primary skin fibroblasts; assay: Fibroblasts scratch migration assay in vitro; format: cell-based; conditions: 24 hrs; hIL-8 5 ng/ml, hIL-1β 0.2 ng/ml, hIL-4 2 ng/ml, apelin 0.2 μg/ml, adiponectin 1 μg/ml
Description: Primary skin fibroblasts were isolated and plated on 5 ml non-coated dishes until confluence in low Ca^2+ medium, and an artificial crossover scratch was formed in each dish with a 200 μm tip. Cells were either non-treated (control) or treated with insulin (0.1 unit/ml), hIL-8 (5 ng/ml), hIL-1β (0.2 ng/ml), hIL-4 (2 ng/ml), apelin (0.2 μg/ml) or adiponectin (1 μg/ml); and collected after 24 hrs.
as §1

[4] = hIL-6 0.2 ng/ml, leptin 4 μg/ml, apelin 0.02 μg/ml
[5] = C57BL mice, insulin 1 μM topical daily for six days, untreated about 60%

In the case of `O=C(Nc1ccccc1)c1cc([N+](=O)[O-])ccc1Cl` [GW9662, 2-chloro-5-nitrobenzanilide, reference compound], the “epidermal migration vs PBS control (K14 staining)” value [1] is reported as “promoted; also recorded: migrating toward covering the wound gap”, the “wound contraction vs PBS control” value [1] is reported as “promoted wound contraction” and the “dermal contraction (both dermal wound sides in a single field, H&E)” value [1] is reported as “positive dermal contraction”. The “wound area compared with the buffer control (morphological analysis)” value [1] was “substantially smaller” and the “keratinocytes migration in vitro vs untreated control” value ([2]; scratch with 200 μm tip, Day 2 (48 hours), GW9662 2 μM, troglitazone 100 μM) was “promoted keratinocytes migration”.

With IL-1: adipokine hIL-1β the “fibroblasts migration to close the wound gap vs non-treated and insulin” value [3] was “promoted fibroblasts migration to completely close the wound gap”.

For IL-6: adipokine hIL-6, the “keratinocyte migration in scratch assay vs control and insulin” value [2, 4] was “not as significantly”.

IL-8: adipokine hIL-8 was tested, and the “fibroblasts migration to close the wound gap vs non-treated and insulin” value [3] was “smaller yet significant effect”.

With adipsin the “epidermal closure, percent of wounds positive (K14)” value ([1]; adipsin 1 μM topical daily, buffer control about 15%) was “about 30%”, the “keratinocytes migration, percent of wounds positive (K14)” value ([1]; adipsin 1 μM topical daily, buffer control about 30%) was “about 65%” and the “epidermal migration vs PBS control (K14 staining)” value [1] was “migrating toward covering the wound gap”. For the same compound, the “wound contraction vs PBS control” value [1] was “substantially promoted wound contraction”, the “dermal contraction (both dermal wound sides in a single field, H&E)” value [1] was “positive dermal contraction” and the “wound area compared with the buffer control (morphological analysis)” value [1] was “substantially smaller”. For the same compound, the “keratinocytes migration in vitro (summary statement)” value ([2]; no concentration given) was “substantially accelerated keratinocytes migration in vitro”.

apelin was tested, and the “fibroblasts migration to close the wound gap vs non-treated and insulin” value [3] was “promoted fibroblasts migration to completely close the wound gap”, the “keratinocyte migration in scratch assay vs control and insulin” value ([2]; hIL-4 2 ng/ml, apelin 0.2 μg/ml) was “keratinocyte migration was highly significant” and the “keratinocyte migration in scratch assay vs control and insulin” value [2, 4] was “not as significantly”.

In the case of insulin [reference compound], the “migrating keratinocytes observed across the wound gap, percent of wounds (K14 staining)” value [1, 5] is reported as “about 90%”, the “recruited adipocytes present, percent of wounds (H&E staining)” value [1, 5] is reported as roughly 80% and the “wound area compared with the buffer control (morphological analysis)” value [1] is reported as “substantially smaller”.

With leptin the “keratinocyte migration in scratch assay vs control and insulin” value [2, 4] was “not as significantly”.
